Laboratory results as given in patent publication US7750014B2, “Imidazo[1,2-C]pyrimidinylacetic acid derivatives” (Actimis Pharmaceuticals, Inc., priority 2004, dated 2010).
Read-outs that look alike come from different tables or passages of the source.

How the values were obtained:
human CRTH2 [1] = target: T1, human CRTH2 (Homo sapiens, UniProt Q9Y5Y4); experiment: Measurement of Ca2+ mobilization in the human CRTH2-transfected L1.2 cell line (Assay 1); type: cell-based; conditions: PGD2-induced Ca2+ mobilization, CRTH2-transfected L1.2 cells, compounds at purity of about 40 to 90%
T1 construct: expressed in transfected cells
T1 sequence (Q9Y5Y4 1-395): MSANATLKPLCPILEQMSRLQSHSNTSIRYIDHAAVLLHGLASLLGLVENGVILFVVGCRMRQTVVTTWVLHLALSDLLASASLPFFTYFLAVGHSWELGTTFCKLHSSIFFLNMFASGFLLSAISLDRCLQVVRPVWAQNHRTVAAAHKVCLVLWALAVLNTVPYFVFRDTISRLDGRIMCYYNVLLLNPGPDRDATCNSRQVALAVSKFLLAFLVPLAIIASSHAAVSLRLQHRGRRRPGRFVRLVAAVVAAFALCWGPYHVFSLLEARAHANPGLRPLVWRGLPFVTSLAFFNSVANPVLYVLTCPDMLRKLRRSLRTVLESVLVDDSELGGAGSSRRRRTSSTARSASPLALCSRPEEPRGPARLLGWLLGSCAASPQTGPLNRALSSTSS
Description: (§1) Human CRTH2 cDNA was amplified from human eosinophil cDNA with gene specific primers containing restriction sites for cloning into pEAK vector (Edge Bio Systems). The human CRTH2 cDNA was cloned into the mammalian expression vector pEAK. This expression plasmid (40 μg) was transfected into L1.2 cells, at a cell density of 1×10^7 cells/500 μl, by using electroporation apparatus (Gene Pulser II, BioRad) at 250V/1,000 μF. One day after the transfection, puromycin (1 μg/ml, Sigma) was added into the cell culture plates. Two weeks after the transfection, grown cells were picked up for further growth.
Ca^2+ loading buffer was prepared by mixing 5 μl of Fluo-3AM (2 mM in DMSO, final 1 μM, Molecular Probes) and 10 μl of pluronic F-127 (Molecular Probes) and diluting the resulting mixture in 10 ml of Ca^2+ assay buffer (20 mM HEPES pH 7.6, 0.1% BSA, 1 mM probenecid, Hanks' solution). The CRTH2 transfected cells which were prepared in Example 1 were washed with PBS, resuspended in Ca^2+ loading buffer at 1×10^7 cells/ml, and incubated for 60 min at room temperature. After incubation, cells were washed and resuspended in Ca^2+ assay buffer, then dispensed into transparent-bottom 96-well plates (#3631, Costar) at 2×10^5 cells/well. Cells were incubated with various concentrations of test compound for 5 minutes at room temperature. The emitted 480 nm fluorescence was measured on FDSS6000, a Ca^2+-measurement apparatus (Hamamatsu Photonics, Hamamatsu, Japan).
Assay results in Assay 1 are shown in Examples and tables of the Examples below. The data corresponds to the compounds as yielded by solid phase synthesis and thus to levels of purity of about 40 to 90%. For practical reasons, the compounds are grouped in four classes of activity as follows: IC50=A(< or =)10 nM<B(< or =)100 nM<C(< or =)500 nM<D

human CRTH2 [2] = target: T1, human CRTH2; experiment: Human CRTH2 receptor binding assay (Assay 2); conditions: binding to puromycin-resistant CRTH2 L1.2 transfectants
Description: as §1
CRTH2 transfectants were washed once with PBS and resuspended in binding buffer (50 mM Tris-HCl, pH7.4, 40 mM MgCl2, 0.1% BSA, 0.1% NaN3). 100 μl of cell suspension (2×10^5 cells), [^3H]-labeled PGD2, and various concentrations of test compound were then mixed in a 96-well U-bottom polypropylene plate and incubated for 60 min at room temperature to allow binding to occur. After incubation, the cell suspension was transferred to a filtration plate (#MAFB, Millipore) and washed 3 times with binding buffer. Scintillant was added to the filtration plate, and radioactivity remaining on the filter was measured by TopCount (Packard), a scintillation counter. Non-specific binding was determined by incubating the cell suspension and [^3H]-labeled PGD2 in the presence of 1 μM of unlabeled PGD2.

[3] = read-out: In vitro activity grade

Structure (SMILES) | IC50 (human CRTH2 [1]; [3]) [nM] | IC50 (human CRTH2 [1]; read-out: Activity class) [nM] | also measured
O=C(O)Cc1c(Cl)nc(Cc2ccc(NC(=O)c3ccc(C(F)(F)F)cc3)cc2)n2ccnc12 [Example 1-1, [7-Chloro-5-(4-{[4-(trifluoromethyl)benzoyl]amino}benzyl)imidazo[1,2-c]pyrimidin-8-yl]acetic acid] | 10 to 100 | – | –
O=C(O)Cc1c(Cl)nc(Cc2ccc(NC(=O)c3ccc(Cl)c(Cl)c3)cc2)n2ccnc12 [Example 1-2, (7-chloro-5-{4-[(3,4-dichlorobenzoyl)amino]benzyl}imidazo[1,2-c]pyrimidin-8-yl)acetic acid] | – | < 10 | –
O=C(O)Cc1c(Cl)nc(Cc2ccc(NC(=O)c3ccc4ccccc4c3)cc2)n2ccnc12 [Example 1-3, {7-chloro-5-[4-(2-naphthoylamino)benzyl]imidazo[1,2-c]pyrimidin-8-yl}acetic acid] | – | 10 to 100 | –
O=C(O)Cc1c(Cl)nc(Cc2ccc(NC(=O)/C=C/c3ccccc3)cc2)n2ccnc12 [Example 1-4] | – | < 10 | –
O=C(O)Cc1c(Cl)nc(Cc2ccc(NC(=O)/C=C/c3ccc(Cl)cc3)cc2)n2ccnc12 [Example 1-5, [7-chloro-5-(4-{[(2E)-3-(4-chlorophenyl)prop-2-enoyl]amino}benzyl)imidazo[1,2-c]pyrimidin-8-yl]acetic acid] | – | 10 to 100 | –
CCCCC[C@H](O)/C=C/[C@H]1C(=O)C[C@H](O)[C@@H]1C/C=C\CCCC(=O)O [[^3H]-labeled PGD2] | – | – | Kd (human CRTH2 [2]): 6.3 nM

Further lines, with some results ahead:

IC50 (human CRTH2 [1]; [3]) [nM] | IC50 (human CRTH2 [1]; read-out: Activity class) [nM] | Structure (SMILES) | also measured
10 to 100 | – | O=C(O)Cc1cnc(Cc2ccc(NC(=O)c3ccc(C(F)(F)F)cc3)cc2)n2ccnc12 [Example 2-1, [5-(4-{[4-(trifluoromethyl)benzoyl]amino}benzyl)imidazo[1,2-c]pyrimidin-8-yl]acetic acid] | –
100 to 500 | – | O=C(O)Cc1cnc(Cc2ccc(NC(=O)c3ccc(Cl)c(Cl)c3)cc2)n2ccnc12 [Example 2-2, (5-{4-[(3,4-Dichlorobenzoyl)amino]benzyl}imidazo[1,2-c]pyrimidin-8-yl)acetic acid] | –
